From PubChem BioAssay AID1963971 (Molecular Pharmacology Branch, DTP, NCI, 2024)

Test system: 953936-095-R-J2-PDC spheroids with HUVEC/MSC, viability
Assay: Anticancer human tumor 953936-095-R-J2-PDC patient-derived cervical squamous cell carcinoma cell line growth inhibition [PI3K]
Settings: for IC50: curve of first compound; for viability, T/C: stronger effect = lower value
How it was run: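 Viability of mixed-cell spheroids was determined after exposure to pairwise combinations, one partner being inavolisib, alpelisib, duvelisib or copanlisib. Highest tested concentration matched clinical Cmax where known and 10 microM where not, descending in half-log steps.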

[1] = second compound 0.0316 µM, first compound 0.00316 µM
[2] = second compound 0.0316 µM, first compound 0.01 µM
[3] = second compound 0.0316 µM, first compound 0.0316 µM
[4] = second compound 0.0316 µM, first compound 0.1 µM
[5] = second compound 0.1 µM, first compound 0.00316 µM
[6] = second compound 0.1 µM, first compound 0.01 µM
[7] = second compound 0.1 µM, first compound 0.0316 µM
[8] = second compound 0.1 µM, first compound 0.1 µM
[9] = second compound 0.316 µM, first compound 0.00316 µM
[10] = second compound 0.316 µM, first compound 0.01 µM
[11] = second compound 0.316 µM, first compound 0.0316 µM
[12] = second compound 0.316 µM, first compound 0.1 µM
[13] = second compound 1 µM, first compound 0.00316 µM
[14] = second compound 1 µM, first compound 0.01 µM
[15] = second compound 1 µM, first compound 0.0316 µM
[16] = second compound 1 µM, first compound 0.1 µM
[17] = second compound 3.16 µM, first compound 0.00316 µM
[18] = second compound 3.16 µM, first compound 0.01 µM
[19] = second compound 3.16 µM, first compound 0.0316 µM
[20] = second compound 3.16 µM, first compound 0.1 µM
[21] = second compound 10 µM, first compound 0.00316 µM
[22] = second compound 10 µM, first compound 0.01 µM
[23] = second compound 10 µM, first compound 0.0316 µM
[24] = second compound 10 µM, first compound 0.1 µM
[25] = second compound 0.0316 µM, first compound 0.316 µM
[26] = second compound 0.0316 µM, first compound 1 µM
[27] = second compound 0.1 µM, first compound 0.316 µM
[28] = second compound 0.1 µM, first compound 1 µM
[29] = second compound 0.316 µM, first compound 0.316 µM
[30] = second compound 0.316 µM, first compound 1 µM
[31] = second compound 1 µM, first compound 0.316 µM
[32] = second compound 1 µM, first compound 1 µM
[33] = second compound 3.16 µM, first compound 0.316 µM
[34] = second compound 3.16 µM, first compound 1 µM
[35] = second compound 10 µM, first compound 0.316 µM
[36] = second compound 10 µM, first compound 1 µM
[37] = second compound 0.0316 µM, first compound 3.16 µM
[38] = second compound 0.0316 µM, first compound 10 µM
[39] = second compound 0.1 µM, first compound 3.16 µM
[40] = second compound 0.1 µM, first compound 10 µM
[41] = second compound 0.316 µM, first compound 3.16 µM
[42] = second compound 0.316 µM, first compound 10 µM
[43] = second compound 1 µM, first compound 3.16 µM
[44] = second compound 1 µM, first compound 10 µM
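Also: spheroids exposed to compounds for seven days before read-out.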

Compound: Cn1ncnc1[C@H]1c2n[nH]c(=O)c3cc(F)cc(c23)N[C@@H]1c1ccc(F)cc1 + CC(Nc1ncnc2nc[nH]c12)c1cc2cccc(Cl)c2c(=O)n1-c1ccccc1
- IC50 (second compound 0.0316 µM): > 100 nM
- IC50 (second compound 0.1 µM): > 100 nM
- IC50 (second compound 0.316 µM): > 100 nM
- IC50 (second compound 1 µM): > 100 nM
- IC50 (second compound 3.16 µM): > 100 nM
- IC50 (second compound 10 µM): > 100 nM
- viability, T/C (second compound 0.0316 µM, first compound 0.000316 µM): 110%
- viability, T/C (second compound 0.0316 µM, first compound 0.001 µM): 95.1%
- viability, T/C [1]: 104%
- viability, T/C [2]: 98.8%
- viability, T/C [3]: 91.7%
- viability, T/C [4]: 96.7%
- viability, T/C (second compound 0.1 µM, first compound 0.000316 µM): 100%
- viability, T/C (second compound 0.1 µM, first compound 0.001 µM): 99.3%
- viability, T/C [5]: 105%
- viability, T/C [6]: 99.7%
- viability, T/C [7]: 101%
- viability, T/C [8]: 90.1%
- viability, T/C (second compound 0.316 µM, first compound 0.000316 µM): 99.5%
- viability, T/C (second compound 0.316 µM, first compound 0.001 µM): 96.8%
- viability, T/C [9]: 110%
- viability, T/C [10]: 92.9%
- viability, T/C [11]: 101%
- viability, T/C [12]: 91.9%
- viability, T/C (second compound 1 µM, first compound 0.000316 µM): 104%
- viability, T/C (second compound 1 µM, first compound 0.001 µM): 90.7%
- viability, T/C [13]: 90.2%
- viability, T/C [14]: 84%
- viability, T/C [15]: 101%
- viability, T/C [16]: 86.9%
- viability, T/C (second compound 3.16 µM, first compound 0.000316 µM): 87.2%
- viability, T/C (second compound 3.16 µM, first compound 0.001 µM): 78.5%
- viability, T/C [17]: 79.8%
- viability, T/C [18]: 81.5%
- viability, T/C [19]: 78%
- viability, T/C [20]: 81.3%
- viability, T/C (second compound 10 µM, first compound 0.000316 µM): 56.8%
- viability, T/C (second compound 10 µM, first compound 0.001 µM): 57.8%
- viability, T/C [21]: 56.9%
- viability, T/C [22]: 61.9%
- viability, T/C [23]: 58.7%
- viability, T/C [24]: 58.9%

Compound: CCN1CCN(Cc2ccc(Nc3ncc(F)c(-c4cc(F)c5nc(C)n(C(C)C)c5c4)n3)nc2)CC1 + Cc1nc(NC(=O)N2CCCC2C(N)=O)sc1-c1ccnc(C(C)(C)C(F)(F)F)c1
- IC50 (second compound 0.0316 µM): > 1000 nM
- IC50 (second compound 0.1 µM): > 1000 nM
- IC50 (second compound 0.316 µM): > 1000 nM
- IC50 (second compound 1 µM): < 3.16 nM
- IC50 (second compound 3.16 µM): < 3.16 nM
- IC50 (second compound 10 µM): < 3.16 nM
- viability, T/C [1]: 89.8%
- viability, T/C [2]: 93.8%
- viability, T/C [3]: 88%
- viability, T/C [4]: 88.6%
- viability, T/C [25]: 87.1%
- viability, T/C [26]: 75.5%
- viability, T/C [5]: 84.8%
- viability, T/C [6]: 83.4%
- viability, T/C [7]: 83.4%
- viability, T/C [8]: 78.3%
- viability, T/C [27]: 76%
- viability, T/C [28]: 73.4%
- viability, T/C [9]: 66.3%
- viability, T/C [10]: 63.4%
- viability, T/C [11]: 65.9%
- viability, T/C [12]: 55.8%
- viability, T/C [29]: 58.6%
- viability, T/C [30]: 53%
- viability, T/C [13]: 47.6%
- viability, T/C [14]: 46%
- viability, T/C [15]: 43.7%
- viability, T/C [16]: 41.8%
- viability, T/C [31]: 38.3%
- viability, T/C [32]: 36.7%
- viability, T/C [17]: 26.6%
- viability, T/C [18]: 26.3%
- viability, T/C [19]: 24.4%
- viability, T/C [20]: 23.6%
- viability, T/C [33]: 23.3%
- viability, T/C [34]: 22.2%
- viability, T/C [21]: 10.8%
- viability, T/C [22]: 11.2%
- viability, T/C [23]: 10.5%
- viability, T/C [24]: 9.34%
- viability, T/C [35]: 9.59%
- viability, T/C [36]: 11.1%

Compound: CC1(C)CCC(Nc2ncc(C(F)(F)F)c(-c3c[nH]c4c(P(C)(C)=O)c(C#N)ccc34)n2)CN1 (stereo not drawn) + COc1c(OCCCN2CCOCC2)ccc2c3n(c(=NC(=O)c4cnc(N)nc4)nc12)CCN3
- IC50 (second compound 0.00316 µM): 31.6 nM
- IC50 (second compound 0.01 µM): < 31.6 nM
- IC50 (second compound 0.0316 µM): < 31.6 nM
- IC50 (second compound 0.1 µM): < 31.6 nM
- IC50 (second compound 0.316 µM): < 31.6 nM
- IC50 (second compound 1 µM): < 31.6 nM
- viability, T/C (second compound 0.00316 µM, first compound 0.0316 µM): 45.6%
- viability, T/C (second compound 0.00316 µM, first compound 0.1 µM): 47%
- viability, T/C (second compound 0.00316 µM, first compound 0.316 µM): 53.5%
- viability, T/C (second compound 0.00316 µM, first compound 1 µM): 47.1%
- viability, T/C (second compound 0.00316 µM, first compound 3.16 µM): 52%
- viability, T/C (second compound 0.00316 µM, first compound 10 µM): 5.49%
- viability, T/C (second compound 0.01 µM, first compound 0.0316 µM): 46.2%
- viability, T/C (second compound 0.01 µM, first compound 0.1 µM): 42.2%
- viability, T/C (second compound 0.01 µM, first compound 0.316 µM): 49.5%
- viability, T/C (second compound 0.01 µM, first compound 1 µM): 35.5%
- viability, T/C (second compound 0.01 µM, first compound 3.16 µM): 44%
- viability, T/C (second compound 0.01 µM, first compound 10 µM): 6.01%
- viability, T/C [3]: 26.9%
- viability, T/C [4]: 22.6%
- viability, T/C [25]: 25.4%
- viability, T/C [26]: 25.5%
- viability, T/C [37]: 24.4%
- viability, T/C [38]: 1.19%
- viability, T/C [7]: 11.9%
- viability, T/C [8]: 16.5%
- viability, T/C [27]: 12.2%
- viability, T/C [28]: 11.8%
- viability, T/C [39]: 8.68%
- viability, T/C [40]: 0.34%
- viability, T/C [11]: 5.51%
- viability, T/C [12]: 5.07%
- viability, T/C [29]: 3.84%
- viability, T/C [30]: 4.98%
- viability, T/C [41]: 3.94%
- viability, T/C [42]: 0.16%
- viability, T/C [15]: 1.33%
- viability, T/C [16]: 1.62%
- viability, T/C [31]: 1.12%
- viability, T/C [32]: 1.34%
- viability, T/C [43]: 1.37%
- viability, T/C [44]: 0.31%

Compound: CC1(C)CCC(CN2CCN(c3ccc(C(=O)NS(=O)(=O)c4ccc(NCC5CCOCC5)c([N+](=O)[O-])c4)c(Oc4cnc5[nH]ccc5c4)c3)CC2)=C(c2ccc(Cl)cc2)C1 + CC(Nc1ncnc2nc[nH]c12)c1cc2cccc(Cl)c2c(=O)n1-c1ccccc1
- IC50 (second compound 0.0316 µM): 7410 nM
- IC50 (second compound 0.1 µM): 6330 nM
- IC50 (second compound 0.316 µM): 7430 nM
- IC50 (second compound 1 µM): 7160 nM
- IC50 (second compound 3.16 µM): 6610 nM
- IC50 (second compound 10 µM): 4900 nM
- viability, T/C [3]: 84.4%
- viability, T/C [4]: 102%
- viability, T/C [25]: 101%
- viability, T/C [26]: 90.2%
- viability, T/C [37]: 94.7%
- viability, T/C [38]: 34.3%
- viability, T/C [7]: 93.8%
- viability, T/C [8]: 104%
- viability, T/C [27]: 112%
- viability, T/C [28]: 98%
- viability, T/C [39]: 78.8%
- viability, T/C [40]: 31%
- viability, T/C [11]: 101%
- viability, T/C [12]: 93.9%
- viability, T/C [29]: 104%
- viability, T/C [30]: 96.3%
- viability, T/C [41]: 90.5%
- viability, T/C [42]: 35.8%
- viability, T/C [15]: 106%
- viability, T/C [16]: 97.1%
- viability, T/C [31]: 82.5%
- viability, T/C [32]: 88.7%
- viability, T/C [43]: 88.8%
- viability, T/C [44]: 34.4%
- viability, T/C [19]: 80.4%
- viability, T/C [20]: 79.4%
- viability, T/C [33]: 80.6%
- viability, T/C [34]: 80.5%
- viability, T/C (second compound 3.16 µM, first compound 3.16 µM): 67.7%
- viability, T/C (second compound 3.16 µM, first compound 10 µM): 39.2%
- viability, T/C [23]: 57.5%
- viability, T/C [24]: 70.3%
- viability, T/C [35]: 59.6%
- viability, T/C [36]: 60.8%
- viability, T/C (second compound 10 µM, first compound 3.16 µM): 62%
- viability, T/C (second compound 10 µM, first compound 10 µM): 31.1%
